# Test results: patent publication US20220330549A1, “USE OF N-BENZYLBENZAMIDE-BASED COMPOUND AS HERBICIDE” (Northwest A&F University, priority 2020, published 2022)
# Assays:
# Format in all cases: in vivo
# Amaranthus retroflexus [1] = test: Herbicidal activity test for indoor post-emergence spraying on stems and leaves; set-up: key: grade level by weed remaining vs blank control, e.g. 5 = 10.1-15%; details: 150 g a.i./ha, visual inspection 21 days after treatment
# Method: (§1) The post-emergence herbicidal activity test was performed with some of the N-benzylbenzamide-based compounds of general formula I or II with reference to the method of NY/T 1155.4-2006. […] After the sowing, the weed was moved to a greenhouse for regular cultivation. […] Then, the results were investigated by visual inspection 21 days after the treatments. […] Level 5: equivalent to 10.1 to 15% of the weed in the blank control area; Level 6: equivalent to 15.1 to 25% of the weed in the blank control area; Level 7: equivalent to 25.1 to 35% of the weed in the blank control area; Level 8: equivalent to 35.1 to 67.5% of the weed in the blank control area; and […]
# green bristlegrass [2] = test: as above; set-up: key: grade level by weed remaining vs blank control, e.g. 5 = 10.1-15%; details: 150 g a.i./ha, visual inspection 21 days after treatment
# Method: as §1
# Barnyard grass [3] = test: as above; set-up: key: grade level by weed remaining vs blank control, e.g. 5 = 10.1-15%; details: 150 g a.i./ha, visual inspection 21 days after treatment
# Method: as §1
# Piemarker [4] = test: as above; set-up: key: grade level by weed remaining vs blank control, e.g. 5 = 10.1-15%; details: 150 g a.i./ha, visual inspection 21 days after treatment
# Method: as §1
# Digitaria sanguinalis [5] = test: as above; set-up: key: grade level by weed remaining vs blank control, e.g. 5 = 10.1-15%; details: 150 g a.i./ha, visual inspection 21 days after treatment
# Method: as §1
# Humulus scandens [6] = test: as above; set-up: key: grade level by weed remaining vs blank control, e.g. 5 = 10.1-15%; details: 150 g a.i./ha, visual inspection 21 days after treatment
# Method: as §1
# goosegrass = test: Field test for weed control in a corn field; details: for Post-emergence weed control effect, Goose grass: 150 g a.i./ha, after treatment
# Method: (§2) The weed control efficacy field test was performed in a corn field with some of the N-benzylbenzamide-based compounds of general formula I or II with reference to the method of GB/T 17980.42-2000. […] Spray treatments were performed in the stage where 2 leaves to 5 leaves were grown for the corns after the sowing. Representative compounds in the examples were used to prepare emulsifiable concentrates (10%), and spray treatments were performed with the concentrates in water at a dosage of 150 g(a.i.)/ha, and repeated 4 times for each treatment, and the area was 20 m^2. Oil dispersion with 25% of mesotrione was used as a control agent and applied at a dosage of 150 g(a.i.)/h. […] The herbicidal activities of the agents were evaluated on a scale of 1-9 levels according to the symptoms and severity of damage to the test weeds.
# (§3) Level 2: equivalent to 0 to 2.5% of the weed in the blank control area;
# (§4) Level 3: equivalent to 2.6 to 5% of the weed in the blank control area;
# (§5) Level 4: equivalent to 5.1 to 10% of the weed in the blank control area;
# (§6) Level 5: equivalent to 10.1 to 15% of the weed in the blank control area;
# (§7) Level 6: equivalent to 15.1 to 25% of the weed in the blank control area;
# (§8) Level 7: equivalent to 25.1 to 35% of the weed in the blank control area;
# (§9) Level 8: equivalent to 35.1 to 67.5% of the weed in the blank control area; and
# (§10) Level 9: equivalent to 67.6 to 100% of the weed in the blank control area.
# Amaranthus retroflexus [7] = test: Field test for weed control in a corn field; details: for Post-emergence weed control effect, Amaranthus retroflexus: 150 g a.i./ha, 30 days after treatment
# Method: as §2, §3, §4, §5, §6, §7, §8, §9, §10
# green bristlegrass [8] = test: Field test for weed control in a corn field; details: for Post-emergence weed control effect, Green bristlegrass: 150 g a.i./ha, after treatment
# Method: as §2, §3, §4, §5, §6, §7, §8, §9, §10
# Portulaca oleracea = test: Field test for weed control in a corn field; details: for Post-emergence weed control effect, Portulaca oleracea: 150 g a.i./ha, after treatment
# Method: as §2, §3, §4, §5, §6, §7, §8, §9, §10
# Barnyard grass [9] = test: Field test for weed control in a corn field; details: for Post-emergence weed control effect, Barnyard grass: 150 g a.i./ha, 30 days after treatment
# Method: as §2, §3, §4, §5, §6, §7, §8, §9, §10
# Acalypha australis = test: Field test for weed control in a corn field; details: for Post-emergence weed control effect, Acalypha australis: 150 g a.i./ha, after treatment
# Method: as §2, §3, §4, §5, §6, §7, §8, §9, §10
# Chenopodium album = test: Field test for weed control in a corn field; details: for Post-emergence weed control effect, Chenopodium album: 150 g a.i./ha, after treatment
# Method: as §2, §3, §4, §5, §6, §7, §8, §9, §10
# Digitaria sanguinalis [10] = test: Field test for weed control in a corn field; details: for Post-emergence weed control effect, Digitaria sanguinalis: 150 g a.i./ha, after treatment
# Method: as §2, §3, §4, §5, §6, §7, §8, §9, §10
# Convolvulus arvensis = test: Field test for weed control in a corn field; details: for Post-emergence weed control effect, Convolvulus arvensis: 150 g a.i./ha, after treatment
# Method: as §2, §3, §4, §5, §6, §7, §8, §9, §10
# Solanum nigrum = test: Field test for weed control in a corn field; details: for Post-emergence weed control effect, Solanum nigrum: 150 g a.i./ha, 30 days after treatment
# Method: as §2, §3, §4, §5, §6, §7, §8, §9, §10
# nutgrass flatsedge = test: Field test for weed control in a corn field; details: for Post-emergence weed control effect, Nutgrass flatsedge: 150 g a.i./ha, after treatment
# Method: as §2, §3, §4, §5, §6, §7, §8, §9, §10
# Humulus scandens [11] = test: Herbicidal activity test for indoor pre-emergence soil treatment; details: 150 g a.i./ha, visual inspection 21 days after treatment
# Method: (§11) The herbicidal activity test for indoor pre-emergence soil treatment was performed with some of the N-benzylbenzamide-based compounds of general formula I or II with reference to the method of NY/T 1155.3-2006. Neutral sandy loam soil having an organic content of ≤2% was added to fill ⅘ of the pot, and the soil was completely moistened by infiltrating irrigation from the bottom of the pot. The seeds of the test weed were evenly spread on the soil surface, and then covered by 0.5 cm to 2.0 cm of soil depending on the seed size. Representative compounds in the examples were used to prepare emulsifiable concentrates (10%), and spray treatments to the soil were performed 24 hours after the sowing with the test agents diluted with water, at a spraying dosage of 150 g(a.i.)/ha. Then, the results were investigated by visual inspection 21 days after the treatments. The herbicidal activity of the agent was evaluated on a scale of 1-9 levels according to the symptoms and severity of damage to the test weeds.
# as §3, §4, §5, §6, §7, §8, §9, §10
# Amaranthus retroflexus [12] = test: as above; set-up: key: 1-9 levels; higher = more weed remaining vs blank control; details: 150 g a.i./ha, visual inspection 21 days after treatment
# Method: as §11, §3, §4, §5, §6, §7, §8, §9, §10
# Digitaria sanguinalis [13] = test: as above; set-up: key: 1-9 levels; higher = more weed remaining vs blank control; details: 150 g a.i./ha, visual inspection 21 days after treatment
# Method: as §11, §3, §4, §5, §6, §7, §8, §9, §10
# Broadleaf weed = test: Post-emergence herbicidal activity test in a paddy field; set-up: key: level scale; higher level = more weed left vs blank control; details: 150 g a.i./ha (penoxsulam control 250 g(a.i.)/h)
# Method: (§12) The post-emergence herbicidal activity test was performed in a paddy field with some of the N-benzylbenzamide-based compounds of general formula I or II with reference to the method of GB/T 17980.40-2000. […] Spray treatments were performed in the stage where 4 leaves to 5 leaves were grown for the rice seedlings which was about 1 month after the sowing. Representative compounds in the examples were used to prepare emulsifiable concentrates (10%), and spray treatments were performed with the concentrates in water at a dosage of 150 g(a.i.)/ha, and repeated 4 times for each treatment, and the area was 50 m^2. 25 g/L of penoxsulam suspension was used as a control agent and applied at a dosage of 250 g(a.i.)/h. The results were investigated by a value estimating survey method 15 days and 30 days after the treatments. The relative weed population quantities were estimated by comparing each agent treated area with an adjacent blank control area, and the results of which were investigated with the following grading standard method using the overall coverage of the weed population as an indicator.
# as §3, §4, §5, §6, §7, §8, §9, §10
# Gramineae = test: as above; set-up: key: level scale; higher level = more weed left vs blank control; details: 150 g a.i./ha (penoxsulam control 250 g(a.i.)/h)
# Method: as §12, §3, §4, §5, §6, §7, §8, §9, §10
# Cyperaceae = test: as above; set-up: key: level scale; higher level = more weed left vs blank control; details: 150 g a.i./ha (penoxsulam control 250 g(a.i.)/h)
# Method: as §12, §3, §4, §5, §6, §7, §8, §9, §10
# green bristlegrass [14] = test: Herbicidal activity test for indoor pre-emergence soil treatment; set-up: key: level 1-9; higher = more weed remaining vs blank control; details: 150 g a.i./ha, visual inspection 21 days after treatment
# Method: as §11, §3, §4, §5, §6, §7, §8, §9, §10
# Barnyard grass [15] = test: as above; set-up: key: level 1-9; higher = more weed remaining vs blank control; details: 150 g a.i./ha, visual inspection 21 days after treatment
# Method: as §11, §3, §4, §5, §6, §7, §8, §9, §10
# Piemarker [16] = test: as above; set-up: key: level 1-9; higher = more weed remaining vs blank control; details: 150 g a.i./ha, visual inspection 21 days after treatment
# Method: as §11, §3, §4, §5, §6, §7, §8, §9, §10
# [17] = 150 g(a.i.)/ha, 21 days after treatments
Compound,Herbicidal Activity Amaranthus retroflexus (Amaranthus retroflexus [1]),Herbicidal Activity Green bristlegrass (green bristlegrass [2]),Herbicidal Activity Barnyard grass (Barnyard grass [3]),Herbicidal Activity Piemarker (Piemarker [4]),Herbicidal Activity Digitaria sanguinalis (Digitaria sanguinalis [5]),Herbicidal Activity Humulus scandens (Humulus scandens [6]),"Post-emergence weed control effect, Goose grass (goosegrass)","Post-emergence weed control effect, Amaranthus retroflexus (Amaranthus retroflexus [7])","Post-emergence weed control effect, Green bristlegrass (green bristlegrass [8])","Post-emergence weed control effect, Portulaca oleracea (Portulaca oleracea)","Post-emergence weed control effect, Barnyard grass (Barnyard grass [9])","Post-emergence weed control effect, Acalypha australis (Acalypha australis)","Post-emergence weed control effect, Chenopodium album (Chenopodium album)","Post-emergence weed control effect, Digitaria sanguinalis (Digitaria sanguinalis [10])","Post-emergence weed control effect, Convolvulus arvensis (Convolvulus arvensis)","Post-emergence weed control effect, Solanum nigrum (Solanum nigrum)","Post-emergence weed control effect, Nutgrass flatsedge (nutgrass flatsedge)",Herbicidal Activity Humulus scandens (Humulus scandens [11]),Herbicidal Activity Amaranthus retroflexus (Amaranthus retroflexus [12]),Herbicidal Activity Digitaria sanguinalis (Digitaria sanguinalis [13]),other results
COc1ccccc1C(=O)NCc1ccc(F)cc1 [Compound A02],1,2 (equivalent to 0 to 2.5% of the weed in the blank control area),1,1,1,1,1,1,1,1,1,1,1,1,1,1,1,4 (equivalent to 5.1 to 10% of the weed in the blank control area),3 (equivalent to 2.6 to 5% of the weed in the blank control area),1,controlling effect on goosegrass (goosegrass; [17]): 1; controlling effect on Amaranthus retroflexus (Amaranthus retroflexus [7]; [17]): 1; controlling effect on green bristlegrass (green bristlegrass [8]; [17]): 1; controlling effect on Portulaca oleracea (Portulaca oleracea; [17]): 1; controlling effect on barnyard grass (Barnyard grass [9]; [17]): 1; controlling effect on Acalypha australis (Acalypha australis; [17]): 1; controlling effect on Chenopodium album (Chenopodium album; [17]): 1; controlling effect on Digitaria sanguinalis (Digitaria sanguinalis [10]; [17]): 1; controlling effect on Convolvulus arvensis (Convolvulus arvensis; [17]): 1; controlling effect on Solanum nigrum (Solanum nigrum; [17]): 1; controlling effect on nutgrass flatsedge (nutgrass flatsedge; [17]): 1; Herbicidal activity 15 days after treatment Broadleaf weed (Broadleaf weed): 1; Herbicidal activity 30 days after treatment Broadleaf weed (Broadleaf weed): 1; Herbicidal activity 15 days after treatment Gramineae (Gramineae): 1; Herbicidal activity 30 days after treatment Gramineae (Gramineae): 1; Herbicidal activity 15 days after treatment Cyperaceae (Cyperaceae): 1; Herbicidal activity 30 days after treatment Cyperaceae (Cyperaceae): 1; Herbicidal Activity Green bristlegrass (green bristlegrass [14]): 2 (equivalent to 0 to 2.5% of the weed in the blank control area); Herbicidal Activity Barnyard grass (Barnyard grass [15]): 1; Herbicidal Activity Piemarker (Piemarker [16]): 2 (equivalent to 0 to 2.5% of the weed in the blank control area)
COc1ncccc1C(=O)NCc1cccc(Cl)c1 [Compound A92],1,1,1,1,1,1,1,1,2 (equivalent to 0 to 2.5% of the weed in the blank control area),1,1,2 (equivalent to 0 to 2.5% of the weed in the blank control area),1,2 (equivalent to 0 to 2.5% of the weed in the blank control area),1,2 (equivalent to 0 to 2.5% of the weed in the blank control area),2 (equivalent to 0 to 2.5% of the weed in the blank control area),2 (equivalent to 0 to 2.5% of the weed in the blank control area),1,1,Herbicidal activity 15 days after treatment Broadleaf weed (Broadleaf weed): 1; Herbicidal activity 30 days after treatment Broadleaf weed (Broadleaf weed): 1; Herbicidal activity 15 days after treatment Gramineae (Gramineae): 2 (equivalent to 0 to 2.5% of the weed in the blank control area); Herbicidal activity 30 days after treatment Gramineae (Gramineae): 2 (equivalent to 0 to 2.5% of the weed in the blank control area); Herbicidal activity 15 days after treatment Cyperaceae (Cyperaceae): 1; Herbicidal activity 30 days after treatment Cyperaceae (Cyperaceae): 1; Herbicidal Activity Green bristlegrass (green bristlegrass [14]): 1; Herbicidal Activity Barnyard grass (Barnyard grass [15]): 1; Herbicidal Activity Piemarker (Piemarker [16]): 1
